Legend:
Type in all cases: physicochemical
[1] = Titration of zinc chloride with sodium tripolyphosphate, clarity of solution; details: zinc chloride titrated with sodium tripolyphosphate; solution cloudy until about 1 equivalent of STPP was added
Description: In the single component titration procedure, a scintillation vial (20 mL) is loaded with 2 mL of a 0.25M zinc nitrate solution and 6 mL of distilled water. The vial is stirred on a magnetic stir plate with an immersed pH electrode. Initial pH is measured. While stirring, the solution is slowly titrated with a 0.75M aqueous solution of arginine in small portions (e.g., 0.01-0.1 mL). In between each addition, the solution is allowed to equilibrate and the pH is recorded. At the conclusion of the experiment, the molar equivalent of added arginine is plotted against the pH. The slope is calculated and plotted as well to highlight the inflection points, which indicate where complex formation takes places.
Substantially the same single-component titration procedure is also performed in a titration of 0.75M zinc chloride with 0.25M sodium tripolyphosphate.

[2] = Dilution experiment (precipitation on dilution with water); details: solutions in distilled water, ZLP 200 mg/mL, ZLC 185 mg/mL; diluted with water at ratios from 1:2 to 1:16; ZLC result at dilutions of 1:8 to 1:16
Description: (§1) A solution of ZLP in distilled water at a concentration of 200 mg/mL (23.6 wt % zinc) is prepared. For comparison, a solution of zinc-lysine-chloride complex (ZLC) ([Zn(lysine)2Cl]Cl) is prepared at a concentration of 185 mg/mL. Both solutions are diluted with water at ratios from 1:2 to 1:16.

[3] = Polyphosphate experiment (mixing with STPP solution); details: 5 mL of aqueous complex solution mixed with 5 mL of 2 wt % STPP solution
Description: Aqueous solutions of ZLP and ZLC, respectively, are prepared as described above, and 5 mL of each of these solutions is mixed with 5 mL STPP solution at a concentration of 2 wt %. […] Thus, ZLP complex is stable in the presence of additional STPP, whereas other zinc complexes may not be.

[4] = Foaming experiment with sodium lauryl sulfate; details: 7.25 wt % complex (0.85 wt % zinc) with 2 wt % sodium lauryl sulfate in distilled water; vial shaken ten times
Description: A solution of ZLP in distilled water at a concentration of 7.25 wt % (0.85 wt % zinc) containing also 2 wt % of sodium lauryl sulfate is compared to a solution of ZLC and sodium lauryl sulfate at the same concentrations and to a solution of sodium lauryl sulfate. Each solution is sealed in a screw-cap vial and shaken back and forth ten times. […] A similar experiment is conducted using an 1:10 aqueous slurry of the toothpaste formula of Example 1 compared to a control toothpaste having the same composition except for the absence of ZLP (in the control, the 7.25% ZLP is replaced by 0.5 wt % TSPP and 6.75 wt % sorbitol, 70%).

[5] = Storage of undiluted solution at room temperature, repeat LC-MS analysis; details: undiluted 200 mg/mL solution stored at room temperature for one month
Description: About 6.0 g of lysine hydrochloride is dissolved in 250 ml distilled water with stirring at room temperature. About 12.0 g sodium tripolyphosphate pentabasic is added with stirring, followed by either 50% aqueous sodium hydroxide solution or concentrated hydrochloric acid solution to adjust the pH to either 5, 6, 7, 8, 9 or 10. To the resulting solution, about 2.68 g of zinc oxide is slowly added. The mixture is then allowed to stir at either room temperature, 50° C. or 80° C., for 2 hours. The reaction is monitored by liquid chromatography-mass spectrometry (LC-MS, using electrospray ionization-tandem mass spectrometer running positive ion mode). LC separation is achieved on Agilent Zorbax SB-Aq column (2.1 mm i.d.×50 mm, 3.5 μm particle size), running 5% water/methanol at 70 μL/minute with 1 μL injection volume.
as §1

solubility in aqueous titration solution [1] | change of LC-MS spectrum after storage [5] | Molecule | precipitation upon dilution with water [2] | appearance after mixing with STPP solution [3] | foaming of solution with SLS relative to aqueous SLS solution [4]
poorly soluble |  | O=P([O-])([O-])OP(=O)([O-])OP(=O)([O-])[O-].[Na+].[Zn+2].[Zn+2] [NaZn2(P3O10)] |  |  | 
 |  | NCCCCC(N)C(=O)O.NCCCCC(N)C(=O)O.[Cl-].[Cl-].[Zn+2] (stereo not drawn) [ZLC, [Zn(lysine)2Cl]Cl] | significant precipitation of insoluble material | produces a white precipitate | significantly inhibited
 | has not changed | [Zn(C6H14N2O2)(P3O10)Na4]^+Cl^− [ZLP] | no precipitation occurs at any dilution | remains clear and homogenous | comparable
soluble |  | O=P([O-])([O-])OP(=O)([O-])OP(=O)([O-])[O-].[Na+].[Na+].[Na+].[Zn+2] [Na3Zn(P3O10)] |  |  | 
